From patent US20230092679A1, “MCL-1 INHIBITOR ANTIBODY-DRUG CONJUGATES AND METHODS OF USE” (NOVARTIS AG, priority 2019, published 2023)

Experiments:
Format in all cases: cell-based
KMS-20 = test: CellTiter-Glo proliferation assay, single agent and with venetoclax (Example 19); settings: 5 days; for IC50: KMS-20, 120 h; for Amax: in %
Procedure: (§1) The CD48 MCL-1 antibody drug conjugates were tested against four endogenous cancer cell lines. KMS-21 BM (JCRB No. JCRB1185 cultured in RPMI-1640+10% FBS), KMS-20 (JCRB No. JCRB1196 cultured in RPMI-1640+10% FBS), KMS-27 (JCRB No. JCRB1188 cultured in RPMI-1640+10% FBS), and NCI-H929 (ATCC No. CRL-9068 cultured in RPMI-1640+10% FBS+0.05 mM 2-mercaptoethanol).
(§2) The ability of the CD48 MCL-1 antibody drug conjugates to inhibit cell proliferation and survival was assessed using the Promega CellTiter-Glo® proliferation assay. Cell lines were cultured in media that is optimal for their growth at 5% CO2, 37° C. in a tissue culture incubator. Prior to seeding for the proliferation assay, the cells were split at least 2 days before the assay to ensure optimal growth density. On the day of seeding, suspension cells were harvested. Cell viability and cell density were determined using a cell counter (Vi-Cell XR Cell Viability Analyzer, Beckman Coulter). […] Cells were seeded at a density of 1,000 cells per well in 45 μL of standard growth media. Plates were incubated at 5% CO2, 37° C. overnight in a tissue culture incubator. The next day, free MCL-1 payload (P1), targeting MCL-1 ADCs and non-targeting isotype ADCs were prepared at 10× in standard growth media. The prepared drug treatments were then added to the cells resulting in final concentrations of 0.0005-300 nM and a final volume of 50 μL per well. Each drug concentration was tested in quadruplets. Two conditions were evaluated for each compound. The compounds were evaluated as single agents and in combination with venetoclax. The venetoclax was dosed at either 5 nM or 50 nM final concentration. Plates were incubated at 5% CO2, 37° C. for 5 days in a tissue culture incubator, after which cell viability was assessed through the addition of 25 μL of CellTiter Glo® (Promega, cat #G7573), a reagent which lyses cells and measures total adenosine triphosphate (ATP) content. Plates were incubated at room temperature for 10 minutes to stabilize luminescent signals prior to reading using a luminescence reader (EnVision Multilabel Plate Reader, PerkinElmer). To evaluate the effect of the drug treatments, luminescent counts from wells containing untreated cells (100% viability) were used to normalize treated samples. A variable slope model was applied to fit a nonlinear regression curve to the data in GraphPad PRISM version 7.02 software. IC50 and Amax values were extrapolated from the resultant curves.

KMS-21 BM = test: as above; settings: 5 days; for IC50: 120 h; for Amax: in %
Procedure: as §1, §2

KMS-27 = test: as above; settings: 5 days; for IC50: KMS-27, 120 h; for Amax: in %
Procedure: as §1, §2

NCI-H929 = test: as above; settings: 5 days; for IC50: Homo sapiens, NCI-H929, 120 h; for Amax: in %
Procedure: as §1, §2

monomac1 = test: In vitro ADC activity, AML cell lines, CellTiter-Glo (Example 20); settings: monomac1, 5 days
nomo1 = test: as above; settings: nomo1, 5 days
p31fuj = test: as above; settings: 5 days
thp1 = test: as above; settings: thp1, 5 days

COc1ccccc1-c1nccc(COc2ccccc2C[C@@H](Oc2ncnc3sc(-c4ccc(F)cc4)c(-c4ccc(OCCN5CCN(C)CC5)c(Cl)c4C)c23)C(=O)O)n1 [P1, (2R)-2-[5-[3-chloro-2-methyl-4-[2-(4-methylpiperazin-1-yl)ethoxy]phenyl]-6-(4-fluorophenyl)thieno[2,3-d]pyrimidin-4-yl]oxy-3-[2-[[2-(2-methoxyphenyl)pyrimidin-4-yl]methoxy]phenyl]propanoic acid]
IC50 (KMS-20; KMS-20, + 5 nM Venetoclax): 30.6 nM
IC50 (KMS-20; KMS-20, + 50 nM Venetoclax): 36.2 nM
IC50 (KMS-20; KMS-20, single agent): 34.7 nM
Amax (KMS-20; KMS-20, + 5 nM Venetoclax): 75.53
Amax (KMS-20; KMS-20, + 50 nM Venetoclax): 82.77
Amax (KMS-20; KMS-20, single agent): 65.65
IC50 (KMS-21 BM; + 5 nM Venetoclax): 5.57 nM
IC50 (KMS-21 BM; + 50 nM Venetoclax): 5.23 nM
IC50 (KMS-21 BM; single agent): 5.73 nM
Amax (KMS-21 BM; + 5 nM Venetoclax): 100.8
Amax (KMS-21 BM; + 50 nM Venetoclax): 99.41
Amax (KMS-21 BM; single agent): 94.25
IC50 (KMS-27; KMS-27, + 5 nM Venetoclax): 20.1 nM
IC50 (KMS-27; KMS-27, + 50 nM Venetoclax): 12 nM
IC50 (KMS-27; KMS-27, single agent): 153 nM
Amax (KMS-27; KMS-27, + 5 nM Venetoclax): 110.5
Amax (KMS-27; KMS-27, + 50 nM Venetoclax): 114.7
IC50 (NCI-H929; NCI-H929, + 5 nM Venetoclax): 8.69 nM
IC50 (NCI-H929; NCI-H929, + 50 nM Venetoclax): 8.29 nM
IC50 (NCI-H929; NCI-H929, single agent): 10.7 nM
Amax (NCI-H929; NCI-H929, + 5 nM Venetoclax): 91.53
Amax (NCI-H929; NCI-H929, + 50 nM Venetoclax): 103.4
Amax (NCI-H929; NCI-H929, single agent): 90.09
GI50 (monomac1; Mono-Mac-1, 120 h): 1 nM
Amax (monomac1; in % (unit assumed)): −66
GI50 (nomo1; Homo sapiens, NOMO-1, 120 h): 1 nM
Amax (nomo1; in % (unit assumed)): −80
Amax (p31fuj; in % (unit assumed)): −73
GI50 (p31fuj; Homo sapiens, P31-FUJ, 120 h): 116 nM
GI50 (thp1; Homo sapiens, THP-1, 120 h): 28 nM
Amax (thp1; in % (unit assumed)): −72
